Test results: the supplement of paper PMC11061612

Experiments:
[1] = compound: C[C@@H](Nc1cc(F)cc(F)c1)c1cc(C(=O)N(C)C)cc2c(=O)cc(N3CCOCC3)oc12 [AZD8186]; details: max 10 µM
In short: (§1)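 Cancer cell lines were seeded in 1536-well plates in 7.5 μl DMEM/F12 or RPMI with 10% FBS, held 24 hours at 37°C and 5% CO2, then dosed for 72 hours (final DMSO typically 0.2%). Viability was read by CellTiter-Glo 2.0 luminescence and scaled between blank-well and DMSO-well means. The single-agent IC50 comes from dose responses fitted to a two-parameter logistic curve with a non-linear mixed effects model.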

[2] = compound: Cc1cc2ncnn2cc1Nc1ncc2c(n1)n(C1CCOCC1)c(=O)n2C [AZD7648]; details: max 10 µM
In short: as §1

[3] = compound: COc1cc2ncnc(Nc3ccc(F)c(Cl)c3)c2cc1OCCCN1CCOCC1 [Gefitinib]; details: max 10 µM
In short: as §1

[4] = compound: Cc1nc(-c2cn3c(n2)-c2ccc(-c4cnn(C(C)(C)C(N)=O)c4)cc2OCC3)n(C(C)C)n1 [Taselisib]; details: max 10 µM
In short: as §1

[5] = compound: COc1cc(Nc2ncc3c(n2)-c2ccc(Cl)cc2C(c2c(F)cccc2OC)=NC3)ccc1C(=O)O [Alisertib]; details: max 10 µM
In short: as §1

[6] = compound: CC(C)n1c(=O)n(C)c2cnc3cc(F)c(-c4ccc(OCCCN5CCCCC5)nc4)cc3c21 [AZD1390]; details: max 0.3 µM
In short: as §1

[7] = compound: COc1cccc2c1C(=O)c1c(O)c3c(c(O)c1C2=O)C[C@@](O)(C(=O)CO)C[C@@H]3O[C@H]1C[C@H](N)[C@H](O)[C@H](C)O1 [Doxorubicin]; details: max 1 µM
In short: as §1

[8] = compound: CCN(CCO)CCCOc1ccc2c(Nc3cc(CC(=O)Nc4cccc(F)c4)[nH]n3)ncnc2c1 [AZD2811]; details: max 1 µM
In short: as §1

[9] = compound: CC1=C(C(=CC=C1)Cl)NC(=O)C2=CN=C(S2)NC3=CC(=NC(=N3)C)N4CCN(CC4)CCO [Dasatinib]; details: max 2 µM
In short: as §1

[10] = compound: C=CCn1c(=O)c2cnc(Nc3ccc(N4CCN(C)CC4)cc3)nc2n1-c1cccc(C(C)(C)O)n1 [AZD1775]; details: max 3 µM
In short: as §1

[11] = compound: CS(=O)(=O)CCNCc1ccc(-c2ccc3ncnc(Nc4ccc(OCc5cccc(F)c5)c(Cl)c4)c3c2)o1 [Lapatinib]; details: max 10 µM
In short: as §1

[12] = compound: COc1cc([C@@H]2c3cc4c(cc3[C@@H](O[C@@H]3O[C@@H]5CO[C@@H](C)O[C@H]5[C@H](O)[C@H]3O)[C@H]3COC(=O)[C@H]23)OCO4)cc(OC)c1O [Etoposide]; details: max 10 µM
In short: as §1

[13] = compound: O=C(c1cc(Cc2n[nH]c(=O)c3ccccc23)ccc1F)N1CCN(C(=O)C2CC2)CC1 [Olaparib]; details: max 10 µM
In short: as §1

[14] = compound: Cc1c2c(nn1C)CSCc1cc(n(C)n1)CSc1cc(c3ccccc3c1)OCCCc1c(C(=O)O)n(C)c3c-2c(Cl)ccc13 [AZD5991]; details: max 1 µM
In short: as §1

[15] = compound: CC1=CN2[C@@H](C1)C=NC3=CC(=C(C=C3C2=O)OC)OCCCCCOC4=C(C=C5C(=C4)N=C[C@@H]6CC(=CN6C5=O)C)OC [SG3199]; details: max 0.001 µM
In short: as §1

[16] = compound: CC1(C)CCC(CN2CCN(c3ccc(C(=O)NS(=O)(=O)c4ccc(NCC5CCOCC5)c([N+](=O)[O-])c4)c(Oc4cnc5[nH]ccc5c4)c3)CC2)=C(c2ccc(Cl)cc2)C1 [Venetoclax]; details: max 1 µM
In short: as §1

[17] = compound: CN(C)CCCOc1ccc(-c2ccc3ncc4c(c3c2)n(C2CCOCC2)c(=O)n4C)cn1 [AZD0156]; details: max 3 µM
In short: as §1

[18] = compound: CC(=O)O[C@H]1C(=O)[C@@]2(C)[C@H]([C@H](OC(=O)c3ccccc3)[C@]3(O)C[C@H](OC(=O)[C@H](O)[C@@H](NC(=O)c4ccccc4)c4ccccc4)C(C)=C1C3(C)C)[C@]1(OC(C)=O)CO[C@@H]1C[C@@H]2O [Paclitaxel]; details: max 3 µM
In short: as §1

[19] = compound: Cn1cnc2c(F)c(Nc3ccc(Br)cc3Cl)c(C(=O)NOCCO)cc21 [Selumetinib]; details: max 10 µM
In short: as §1

[20] = compound: CC(=O)c1c(C)c2cnc(Nc3ccc(N4CCNCC4)cn3)nc2n(C2CCCC2)c1=O [Palbociclib]; details: max 10 µM
In short: as §1

[21] = compound: O=C(Nc1ccc2[nH]nc(-c3ccncc3)c2c1)[C@@H]1CCN(CC(=O)N2CCN(c3ccc(-c4ncccn4)cc3)CC2)C1; details: max 5 µM
In short: as §1

[22] = compound: COc1nnc2ccc(N3CCC(c4ccc(OCCN5CCN(C)C(=O)[C@H]5C)cc4)CC3)nn12 [AZD5153]; details: max 1 µM
In short: as §1

[23] = compound: Nc1ccn([C@@H]2O[C@H](CO)[C@@H](O)C2(F)F)c(=O)n1 [Gemcitabine]; details: max 0.3 µM
In short: as §1

[24] = compound: CC(=O)Nc1cccc(-n2c(=O)n(C3CC3)c(=O)c3c(Nc4ccc(I)cc4F)n(C)c(=O)c(C)c32)c1 [Trametinib]; details: max 1 µM
In short: as §1

[25] = compound: C[C@@H](Oc1cc(-c2cnn(C3CCNCC3)c2)cnc1N)c1c(Cl)ccc(F)c1Cl [Crizotinib]; details: max 10 µM
In short: as §1

[26] = compound: COc1cccc(OCCCN)c1-c1cc(Nc2cnc(C#N)cn2)n[nH]1 [Prexasertib]; details: max 1 µM
In short: as §1

[27] = compound: C1CC(C1)(C(=O)[O-])C(=O)[O-].N.N.[Pt+2] [Carboplatin]; details: max 10 µM
In short: as §1

[28] = compound: O=c1[nH]cc(F)c(=O)[nH]1 [5-Fluorouracil]; details: max 20 µM
In short: as §1

[29] = compound: CCc1c2c(nc3ccc(O)cc13)-c1cc3c(c(=O)n1C2)COC(=O)[C@]3(O)CC [SN-38]; details: max 0.3 µM
In short: as §1

[30] = compound: CN(CC[C@H](CSC1=CC=CC=C1)NC2=C(C=C(C=C2)S(=O)(=O)NC(=O)C3=CC=C(C=C3)N4CCC(CC4)[C@H](C5=CC=CC=C5C6=CC=C(C=C6)Cl)O)S(=O)(=O)C(F)(F)F)CCO [AZD4320]; details: max 1 µM
In short: as §1

[31] = compound: NC1(c2ccc(-c3nc4ccn5c(=O)[nH]nc5c4cc3-c3ccccc3)cc2)CCC1 [MK-2206]; details: max 10 µM
In short: as §1

[32] = compound: C[C@@H]1COCCN1C2=NC(=NC(=C2)C3(CC3)[S@](=N)(=O)C)C4=C5C=CNC5=NC=C4 [AZD6738]; details: max 10 µM
In short: as §1

[33] = compound: C1CN(CCC1(C(=O)N[C@@H](CCO)C2=CC=C(C=C2)Cl)N)C3=NC=NC4=C3C=CN4 [AZD5363]; details: max 10 µM
In short: as §1

[34] = compound: C[C@@H](c1ccc2nccn2c1)n1nnc2ncc(-c3cnn(C)c3)nc21 [Savolitinib]; details: max 1 µM
In short: as §1

[35] = compound: N#Cc1cnc(Nc2cc(NC[C@H]3CNCCO3)c(C(F)(F)F)cn2)cn1 [SRA737]; details: max 10 µM
In short: as §1

Cell Line	IC50, cell viability 72 h [1]	IC50, cell viability 72 h [2]	IC50, cell viability 72 h [3]	IC50, cell viability 72 h [4]	IC50, cell viability 72 h [5]	IC50, cell viability 72 h [6]	IC50, cell viability 72 h [7]	IC50, cell viability 72 h [8]	IC50, cell viability 72 h [9]	IC50, cell viability 72 h [10]	IC50, cell viability 72 h [11]	IC50, cell viability 72 h [12]	IC50, cell viability 72 h [13]	IC50, cell viability 72 h [14]	IC50, cell viability 72 h [15]	IC50, cell viability 72 h [16]	IC50, cell viability 72 h [17]	IC50, cell viability 72 h [18]	IC50, cell viability 72 h [19]	IC50, cell viability 72 h [20]	IC50, cell viability 72 h [21]	IC50, cell viability 72 h [22]	IC50, cell viability 72 h [23]	IC50, cell viability 72 h [24]	IC50, cell viability 72 h [25]	IC50, cell viability 72 h [26]	IC50, cell viability 72 h [27]	IC50, cell viability 72 h [28]	IC50, cell viability 72 h [29]	IC50, cell viability 72 h [30]	IC50, cell viability 72 h [31]	IC50, cell viability 72 h [32]	IC50, cell viability 72 h [33]	IC50, cell viability 72 h [34]	IC50, cell viability 72 h [35]
VMRC-LCD (Lung Adenocarcinoma)	> 10000 nM	> 10000 nM	> 10000 nM	> 10000 nM	668 nM	> 300 nM	> 1000 nM	745 nM	> 2000 nM	> 3000 nM	> 10000 nM	> 10000 nM	> 10000 nM	> 1000 nM	> 1 nM	> 1000 nM	> 3000 nM	19 nM	> 10000 nM	> 10000 nM	> 5000 nM	802 nM	> 300 nM	> 1000 nM	5710 nM	115 nM	> 10000 nM	> 20000 nM	> 300 nM	> 1000 nM	> 10000 nM	> 10000 nM	> 10000 nM	> 1000 nM	> 10000 nM
H-EMC-SS (Chondrosarcoma)	> 10000 nM	> 10000 nM	> 10000 nM	3360 nM	8380 nM	> 300 nM	428 nM	> 1000 nM	> 2000 nM	> 3000 nM	> 10000 nM	> 10000 nM	> 10000 nM	> 1000 nM	> 1 nM	> 1000 nM	> 3000 nM	> 3000 nM	> 10000 nM	> 10000 nM	> 5000 nM	> 1000 nM	> 300 nM	293 nM	> 10000 nM	> 1000 nM	> 10000 nM	> 20000 nM	153 nM	> 1000 nM	> 10000 nM	> 10000 nM	> 10000 nM	> 1000 nM	> 10000 nM
TGBC11TKB (Gastric Carcinoma)	> 10000 nM	> 10000 nM	> 10000 nM	> 10000 nM	> 10000 nM	> 300 nM	> 1000 nM	> 1000 nM	> 2000 nM	287 nM	> 10000 nM	> 10000 nM	> 10000 nM	> 1000 nM	> 1 nM	> 1000 nM	> 3000 nM	20.4 nM	8400 nM	> 10000 nM	> 5000 nM	> 1000 nM	45.4 nM	522 nM	> 10000 nM	11.2 nM	> 10000 nM	> 20000 nM	159 nM	> 1000 nM	> 10000 nM	2020 nM	> 10000 nM	> 1000 nM	1710 nM
OCUM-1 (Gastric Carcinoma)	> 10000 nM	> 10000 nM	> 10000 nM	> 10000 nM	> 10000 nM	> 300 nM	> 1000 nM	> 1000 nM	> 2000 nM	1510 nM	> 10000 nM	> 10000 nM	> 10000 nM	> 1000 nM	> 1 nM	> 1000 nM	> 3000 nM	2620 nM	63 nM	> 10000 nM	35.9 nM	645 nM	110 nM	1.85 nM	> 10000 nM	78.1 nM	> 10000 nM	> 20000 nM	48.6 nM	571 nM	> 10000 nM	2950 nM	8900 nM	> 1000 nM	> 10000 nM
GI-1 (Glioblastoma)	9590 nM	> 10000 nM	> 10000 nM	3040 nM	> 10000 nM	> 300 nM	670 nM	> 1000 nM	> 2000 nM	755 nM	> 10000 nM	4030 nM	> 10000 nM	737 nM	> 1 nM	> 1000 nM	> 3000 nM	10.2 nM	> 10000 nM	> 10000 nM	> 5000 nM	303 nM	53.3 nM	> 1000 nM	5430 nM	17.8 nM	> 10000 nM	> 20000 nM	9.55 nM	> 1000 nM	> 10000 nM	2100 nM	7330 nM	> 1000 nM	3870 nM
